Results: article PMC8424217 (The Journal of Biological Chemistry, 2021)
Peptide text beside a SMILES is read from it. * marks the point of attachment. Palmitoyl = CCCCCCCCCCCCCCCC(=O)*

How the values were obtained:
[1] = test system: rat neonatal cardiac fibroblasts; experiment: Rat cardiac neonatal fibroblast proliferation, high content imaging; format: cell-based; conditions: 10^−6 M, 24 h, three independent experiments in triplicate
Text: Each bar corresponds to the mean ± SEM obtained from three independent experiments conducted in triplicate.
Neonatal cardiac rat fibroblasts, endogenously expressing UT ([82]), were obtained from 1–3-day-old Sprague-Dawley pups as previously reported ([83]). Briefly, hearts obtained from neonatal rats were enzyme-digested and after centrifugation, cells were preplated to separate cardiomyocytes from fibroblasts. As reported, the adherent nonmyocyte fractions correspond predominantly to fibroblasts while the supernatants largely contain the cardiomyocytes. After several washes, attached fibroblasts were trypsinized and then cultured at 37 °C in 96-well plate (6000 cells per well) in low glucose-DMEM supplemented with 7% FBS, 100 units/ml of penicillin, and 100 μg/ml of streptomycin. After 48 h, cells were washed twice with low glucose-DMEM, and starved for 12 h in this medium. […] Cells are incubated with primary anti-smooth muscle α-actin antibody (1/500) in 10% horse serum/PBS overnight at 4 °C and later with secondary anti-rabbit Alexa Fluor 488 (1/1000) for 1 h at RT. Cell staining was performed using cell mask (1 μg mL^−1) in PBS for 30 min at room temperature and with Hoechst dye in PBS (1 μg/ml) for 10 min. Analysis was performed on an Opera Phoenix High Content Imaging System with a 20× water objective.

rat thoracic aorta rings = target: T1, rat thoracic aorta rings (Rattus norvegicus, UniProt P49684); experiment: Rat aortic ring contraction (agonist); conditions: for contraction pEC50: n = 22 (hUII, URP), n = 5 (pepducins); for contraction at 10 μM: n = 5
T1 sequence (P49684 1-386): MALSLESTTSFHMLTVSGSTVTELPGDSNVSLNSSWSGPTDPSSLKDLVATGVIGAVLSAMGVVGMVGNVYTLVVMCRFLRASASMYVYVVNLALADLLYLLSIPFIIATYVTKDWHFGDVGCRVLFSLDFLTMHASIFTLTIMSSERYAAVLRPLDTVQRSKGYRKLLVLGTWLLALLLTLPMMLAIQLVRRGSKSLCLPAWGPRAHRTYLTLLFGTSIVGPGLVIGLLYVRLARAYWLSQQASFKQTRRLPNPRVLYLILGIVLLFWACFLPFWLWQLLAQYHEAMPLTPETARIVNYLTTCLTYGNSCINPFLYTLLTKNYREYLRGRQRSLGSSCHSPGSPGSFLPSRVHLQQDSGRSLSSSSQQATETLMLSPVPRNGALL
Method: Each replicate (n) was conducted on tissue obtained from at least three different animals. Data represent mean ± SEM.
Adult male Sprague-Dawley rats (Charles-River) weighing 250–300 g were housed in cages under controlled illumination (12:12 h light–dark cycle), humidity, and temperature (21–23 °C) and had free access to tap water and rat chow. All experimental procedures were performed in accordance with regulations and ethical guidelines from the Canadian Council for the Care of Laboratory Animals and received approvals of the institutional animal care and use committee of the Institut National de la Recherche Scientifique—Centre Armand-Frappier Santé Biotechnologie. As previously described ([17], [18]), the thoracic aorta was cleared of surrounding tissue and then excised from the aortic arch to the diaphragm. Conjunctive tissues were next removed from the thoracic aorta and the vessels were divided into five rings of 4 mm. The endothelium of each aortic ring was removed by gently rubbing the vessel intimal surface. Aortic rings were then placed in a 5 ml organ bath filled with oxygenated normal Krebs–Henseleit buffer. Eighty microliters of a 2.5 M potassium chloride solution (40 mM final concentration) was used to evaluate maximal contractile responses of each vessel. […] Cumulative concentration–response curves to synthetic peptides were obtained by increasing the concentration of each peptide in the remaining organ chambers (10^−11–10^−5 M).

[2] = percentage of contraction induced by 40 mM KCl

| Compound | rat neonatal cardiac fibroblast proliferation [1] | contraction pEC50 (rat thoracic aorta rings; mean ± SEM) | Emax (rat thoracic aorta rings; percentage of contraction induced by 40 mM KCl, mean ± SEM, n = 22) [%] | contraction at 10 μM (rat thoracic aorta rings; [2]) [% @ 10 μM] |
| --- | --- | --- | --- | --- |
| CC(C)[C@H](NC(=O)[C@@H]1CSSC[C@H](NC(=O)[C@H](CC(=O)O)NC(=O)[C@@H]2CCCN2C(=O)[C@@H](NC(=O)[C@@H](N)CCC(=O)O)[C@@H](C)O)C(=O)N[C@@H](Cc2ccccc2)C(=O)N[C@@H](Cc2c[nH]c3ccccc23)C(=O)N[C@@H](CCCCN)C(=O)N[C@@H](Cc2ccc(O)cc2)C(=O)N1)C(=O)O [hUII, urotensin II, reference compound] | proliferative action in rat neonatal cardiac fibroblasts similar to what was observed with hUII | 8.64 ± 0.09 | 102 ± 3 | – |
| CCCCCCCCCCCCCCCC(=O)N[C@@H](Cc1c[nH]c2ccccc12)C(=O)N[C@@H](CC(C)C)C(=O)N[C@@H](CO)C(=O)N[C@@H](CCC(N)=O)C(=O)N[C@@H](CCCNC(=N)N)C(=O)N[C@@H](C)C(=O)N[C@@H](CO)C(=O)N[C@@H](Cc1ccccc1)C(=O)N[C@@H](CCCCN)C(=O)N[C@@H](CCCNC(=N)N)C(=O)N[C@@H](C)C(=O)N[C@@H](CCCNC(=N)N)C(=O)N[C@@H](CCCNC(=N)N)C(N)=O [[Trp^1, Leu^2]hUT-Pep3] (Palmitoyl-WLSQRASFKRARR-NH2) | proliferative action in rat neonatal cardiac fibroblasts similar to what was observed with hUII | <5 | – | 16 |
| CCCCCCCCCCCCCCCC(=O)N[C@@H](CCCNC(=N)N)C(=O)N1CCC[C@H]1C(=O)N[C@@H](CC(C)C)C(=O)N[C@@H](CC(=O)O)C(=O)N[C@H](C(=O)N[C@H](C(=O)N[C@@H](CCC(N)=O)C(=O)N[C@@H](CCCNC(=N)N)C(=O)N1CCC[C@H]1C(=O)N[C@@H](CCCCN)C(=O)NCC(=O)N[C@@H](Cc1ccc(O)cc1)C(N)=O)C(C)C)[C@@H](C)O [hUT-Pep2] (Palmitoyl-RPLDTVQRPKGY-NH2) | proliferative action in rat neonatal cardiac fibroblasts similar to what was observed with hUII | <5 | – | 7 |
